Measured values: ChEMBL document CHEMBL1201862, “PubChem BioAssay data set” (2004)
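Interpolation was linear, between the two tested concentrations surrounding the appropriate level; five concentrations were tested over 48 hours in 96-well plates. GI50: concentration for 50% inhibition of growth.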 Calls of active or inactive are those of the source. Rule as the data show it: active = GI50 up to about 1.1 µM and inactive = higher.

Legend:
Test in all cases: growth of human tumour cells (NCI), 48 h
NCI-H23 = tested on: NCI-H23
SK-MEL-5 = tested on: SK-MEL-5
U-251 = tested on: U-251
EKVX = tested on: EKVX
RXF 631 = tested on: RXF 631
HCC 2998 = tested on: HCC 2998
HOP-18 = tested on: HOP-18
LXFL 529 = tested on: LXFL 529
UACC-257 = tested on: UACC-257
SF-295 = tested on: SF-295
UO-31 = tested on: UO-31
UACC-62 = tested on: UACC-62
XF498 = tested on: XF498
SW-620 = tested on: SW-620
SK-MEL-28 = tested on: SK-MEL-28
SF-539 = tested on: SF-539
SNB-78 = tested on: SNB-78
LOX IMVI = tested on: LOX IMVI
COLO 205 = tested on: COLO 205
SF-268 = tested on: SF-268
786-0 = tested on: 786-0
ACHN = tested on: ACHN
M14 = tested on: M14
HCT-116 = tested on: HCT-116
HL-60 = tested on: HL-60
HCT-15 = tested on: HCT-15
TK-10 = tested on: TK-10
HOP-62 = tested on: HOP-62
HT-29 = tested on: HT-29
DMS-273 = tested on: DMS-273
KM12 = tested on: KM12
RXF 393 = tested on: RXF 393
RPMI-8226 = tested on: RPMI-8226
SK-OV-3 = tested on: SK-OV-3
OVCAR-5 = tested on: OVCAR-5
SNB-75 = tested on: SNB-75
M19-MEL = tested on: M19-MEL
A498 = tested on: A498
SNB-19 = tested on: SNB-19
Malme-3M = tested on: Malme-3M
NCI-H460 = tested on: NCI-H460
K562 = tested on: K562
OVCAR-4 = tested on: OVCAR-4
IGROV-1 = tested on: IGROV-1
CCRF-CEM = tested on: CCRF-CEM
CAKI-1 = tested on: CAKI-1
A549 = tested on: A549
OVCAR-3 = tested on: OVCAR-3
KM-20L2 = tested on: KM-20L2
DMS-114 = tested on: DMS-114
OVCAR-8 = tested on: OVCAR-8
SN12C = tested on: SN12C
MOLT-4 = tested on: MOLT-4
SK-MEL-2 = tested on: SK-MEL-2
DLD-1 = tested on: DLD-1
HOP-92 = tested on: HOP-92
NCI-H226 = tested on: NCI-H226
NCI-H522 = tested on: NCI-H522

Measured: GI50

CN1N=CSC12C(=O)N(c1ccccc1)C(=O)N2c1ccccc1 (stereo unspecified)
active: HOP-18 < 0.01 µM
> 100 µM: HCT-15
inactive: NCI-H23 > 100 µM | SK-MEL-5 > 100 µM | U-251 > 100 µM | EKVX > 100 µM | RXF 631 > 100 µM | HCC 2998 > 100 µM | LXFL 529 > 100 µM | UACC-257 > 100 µM | SF-295 > 100 µM | UO-31 > 100 µM | UACC-62 > 100 µM | XF498 > 100 µM | SW-620 > 100 µM | SK-MEL-28 > 100 µM | SF-539 > 100 µM | SNB-78 > 100 µM | LOX IMVI > 100 µM | COLO 205 > 100 µM | SF-268 > 100 µM | 786-0 > 100 µM | ACHN > 100 µM | M14 > 100 µM | HCT-116 > 100 µM | HL-60 > 100 µM | TK-10 > 100 µM | HOP-62 > 100 µM | HT-29 > 100 µM | DMS-273 > 100 µM | KM12 > 100 µM | RXF 393 > 100 µM | RPMI-8226 > 100 µM | SK-OV-3 > 100 µM | OVCAR-5 > 100 µM | SNB-75 > 100 µM | M19-MEL > 100 µM | A498 > 100 µM | SNB-19 > 100 µM | Malme-3M > 100 µM | NCI-H460 > 100 µM | K562 > 100 µM | OVCAR-4 82.2 µM | IGROV-1 > 100 µM | CCRF-CEM > 100 µM | CAKI-1 > 100 µM | A549 > 100 µM | OVCAR-3 > 100 µM | KM-20L2 > 100 µM | DMS-114 > 100 µM | OVCAR-8 > 100 µM | SN12C > 100 µM | MOLT-4 > 100 µM | SK-MEL-2 > 100 µM | DLD-1 > 100 µM

CCN(CC)Cc1cc(Nc2c3ccccc3nc3c4ccccc4n(C)c23)ccc1O
inactive: NCI-H23 15.1 µM | SK-MEL-5 2.61 µM | U-251 10.8 µM | EKVX 15.6 µM | RXF 631 3.18 µM | HOP-18 14.1 µM | LXFL 529 4.8 µM | UACC-257 10.4 µM | HOP-92 5.9 µM | SF-295 10 µM | UO-31 9.95 µM | UACC-62 6.9 µM | XF498 4.84 µM | SW-620 6.07 µM | SK-MEL-28 4.43 µM | SF-539 3.87 µM | SNB-78 18.6 µM | LOX IMVI 2.83 µM | COLO 205 4.73 µM | SF-268 16.6 µM | 786-0 3.76 µM | ACHN 11.2 µM | M14 1.92 µM | HCT-116 7.16 µM | HL-60 3.46 µM | TK-10 13.9 µM | NCI-H226 29.2 µM | HOP-62 12 µM | HT-29 5.32 µM | NCI-H522 2.58 µM | DMS-273 5.64 µM | KM12 7.73 µM | RXF 393 11.3 µM | RPMI-8226 3.67 µM | SK-OV-3 16.7 µM | OVCAR-5 10.1 µM | SNB-75 13.6 µM | M19-MEL 7.85 µM | A498 13.7 µM | SNB-19 16.7 µM | Malme-3M 13.7 µM | NCI-H460 7.91 µM | K562 2.51 µM | OVCAR-4 14 µM | IGROV-1 15.4 µM | CCRF-CEM 2.05 µM | CAKI-1 11.2 µM | A549 12.9 µM | KM-20L2 5.45 µM | DMS-114 6.37 µM | OVCAR-8 9.25 µM | SN12C 13.9 µM | MOLT-4 2.77 µM | SK-MEL-2 20.7 µM | DLD-1 6.76 µM
8.85 µM: HCT-15
